Measurements as given in ChEMBL document CHEMBL1201862, “PubChem BioAssay data set” (2004).
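Where inhibition never reached the appropriate level, the endpoint shown equals the highest concentration tested. Otherwise, values were interpolated linearly from a five-concentration, 48-hour dose response in 96-well plates. GI50 marks 50% less growth.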 Active and inactive are the calls of the source. Rule as the data show it: active = GI50 up to about 1.1 µM and inactive = higher.

Columns and labels:
Assay in all cases: NCI tumour cell line growth inhibition, 48 h
EKVX = test system: EKVX
ACHN = test system: ACHN
PC-3 = test system: PC-3
CAKI-1 = test system: CAKI-1
MDA-MB-231 = test system: MDA-MB-231
MDA-MB-435 = test system: MDA-MB-435
A498 = test system: A498
MCF7 = test system: MCF7
M14 = test system: M14
MDA-N = test system: MDA-N
NCI/ADR-RES = test system: NCI/ADR-RES
SR = test system: SR
Hs-578T = test system: Hs-578T
DMS-273 = test system: DMS-273
LXFL 529 = test system: LXFL 529
XF498 = test system: XF498
KM-20L2 = test system: KM-20L2
M19-MEL = test system: M19-MEL
NCI-H522 = test system: NCI-H522
DLD-1 = test system: DLD-1

Measured: GI50

CN(C)c1ccc(/C=C2\C[C@H]3[C@@H]4CCc5cc(O)ccc5[C@H]4CC[C@]3(C)C2=O)cc1
inactive: EKVX 32.5 µM | ACHN 56.1 µM | PC-3 > 100 µM | CAKI-1 > 100 µM | MDA-MB-231 16.5 µM | MDA-MB-435 > 100 µM | A498 98.2 µM | MCF7 > 100 µM | M14 > 100 µM | MDA-N > 100 µM | NCI/ADR-RES > 100 µM | SR > 100 µM | Hs-578T 10.5 µM

CCn1c2ccccc2c2cc(NC(=O)c3c(C)[nH]c(=O)[nH]c3=S)ccc21
inactive: PC-3 31.8 µM | CAKI-1 > 100 µM | MDA-MB-231 19.8 µM | MDA-MB-435 22.6 µM | A498 > 100 µM | MCF7 49.4 µM | M14 24.2 µM | MDA-N 29.2 µM | NCI/ADR-RES > 100 µM | SR 41 µM | Hs-578T 50.4 µM

COc1cccc(NC(=O)CC(=O)NNCC(=O)Nc2nnc(-c3ccc(N(CCC#N)S(=O)(=O)c4ccccc4)cc3)s2)c1
inactive: DMS-273 72.1 µM | EKVX 41 µM | LXFL 529 66.4 µM | ACHN 34.8 µM | CAKI-1 > 100 µM | XF498 73.8 µM | KM-20L2 > 100 µM | M19-MEL 44.1 µM | NCI-H522 39 µM | SR 28.8 µM | DLD-1 45.1 µM

COc1ccc(/C(Cl)=C(\C=O)c2ccc(Cl)c(Cl)c2)cc1OC
inactive: DMS-273 6.73 µM | EKVX 9.53 µM | LXFL 529 3.55 µM | ACHN 4.56 µM | CAKI-1 5.08 µM | XF498 3.05 µM | A498 15.2 µM | M14 7.1 µM | KM-20L2 6 µM | M19-MEL 8.11 µM | NCI-H522 2.36 µM | DLD-1 4.46 µM

C1CCC(OC2CSC2)OC1 (stereo not drawn)
inactive: ACHN > 100 µM | PC-3 > 100 µM | MDA-MB-231 > 100 µM | MDA-MB-435 > 100 µM | A498 > 100 µM | MCF7 > 100 µM | M14 > 100 µM | MDA-N > 100 µM | NCI/ADR-RES > 100 µM | NCI-H522 > 100 µM | SR > 100 µM | Hs-578T > 100 µM

Cc1c2cnccc2c(C)c2c1c1ccccc1n2CCCCCCCl
inactive: DMS-273 > 39.8 µM | EKVX > 50 µM | CAKI-1 > 50 µM | XF498 33 µM | A498 > 50 µM | MCF7 > 50 µM | KM-20L2 25.1 µM | M19-MEL 40 µM | NCI/ADR-RES > 46.3 µM | NCI-H522 > 50 µM | DLD-1 > 50 µM

CCNc1nnc(-c2nsc3ccccc23)s1
inactive: DMS-273 27.7 µM | EKVX 51.9 µM | LXFL 529 94.2 µM | ACHN 62.4 µM | M14 > 100 µM | KM-20L2 55.3 µM | M19-MEL > 100 µM | SR > 100 µM
